{"source": "patent US11548855B2", "about": "“Pyrazole amide compound and application thereof, and fungicide” (Shandong United Pesticide Industry Co. Ltd., priority 2017, dated 2023)", "key": {"[1]": {"test_system": "rice sheath blight fungi (Rhizoctonia solami)", "assay": "Greenhouse pot test, rice sheath blight", "type": "in vivo", "protocol": "(§1) The compounds provided by the present disclosure and some control compounds were tested by the same methods in the Test example 1, except that the effective concentrations of the compounds in this Test example are shown in Table 2.\nIn addition, the test method for rice sheath blight as following steps:\nThe potted rice seedling with uniform growth was selected, and dried in the shade for 24 h after spray treatment, then inoculated 3 blocks of 0.25 cm^2 rice sheath blight fungi (Rhizoctonia solami) at the base of seedling by clamp inoculation bacterium block method. The test materials inoculated were moved into greenhouse (temperature: lighting 28° C., dark 25° C., relative humidity 95%), after 7 days, investigate 5 leaves of per block treatment, the grading investigation was carried out according to the disease incidence condition of sheaths and leaves of rice, “Guidelines for the field efficacy trials of pesticides” was adopted as the grading standard, the disease index was calculated according to the grading standard, and the control effect in a unit of % was calculated according to disease index."}, "[2]": {"test_system": "cucumber powdery mildew", "assay": "Greenhouse pot test, cucumber powdery mildew", "type": "in vivo", "details": "Cucumis sativus, 192 h, greenhouse pot, read-out: Control effect (%) Cucumber powdery mildew", "protocol": "(§2) Test method: each of the test compounds in Table 1 was dispensed to 5 wt % emulsifiable concentrate (hereinafter referred to as 5% EC). The greenhouse pot test was used in each experiment, and the effective concentrations of each compound were illustrated in Table 1.\nCucumber powdery mildew: cucumber seedling in a true leaf period with uniform growth was selected, and dried in the shade for 24 h after spray treatment. Fresh cucumber powdery mildew spores on the cucumber leaves were collected and washed, and filtered through a double gauze to prepare a spores suspension with concentration of about 100,000/mL, then spray inoculation was applied. The test materials inoculated were moved into a greenhouse (lighting 21-23° C.), after 8 days, the grading investigation was carried out according to the disease incidence condition of blank control, and the control effect in a unit of % was calculated according to disease index.\n(§3) The investigation method: “Guidelines for the field efficacy trials of pesticides” was adopted as the grading standard, and the control effect in a unit of % was calculated based on the disease index. Disease index=Σ(number of diseased leaves at each grade×relative grade value)×100/(total number of leaves×9); Control effect (%)=(disease index of control−disease index of treated)×100/disease index of control;\nas §1"}, "[3]": {"test_system": "wheat powdery mildew", "assay": "Field trial, wheat powdery mildew", "type": "in vivo, Erysiphe graminis", "details": "sprayed once", "protocol": "II. The Wheat Powdery Mildew Test Method:\n(§4) Spray method: Stein and leaf spraying (Applicator: Xinkangda lithium battery electric sprayer).\nTest crops: wheat (cultivars: Liaochun 10)\n(§5) The test was carried out in Shenyang, the test field was loam with rich organic matters and normal management of fertilizer and water, and no other pesticide was applied during the test.\nThe arrangement of the test plot was random block permutation; the area of the test plot: 15 m^2; repeat times: 3 times; spray time and frequency: Sep. 17, 2018, once. Spray dosage: each treatment was repeated 3 times, the total water consumption was 8 L. No other pesticide was applied during the test.\nThe incidence of disease spots in each plot was investigated by diagonal selecting 4 samples/plot and 20 plants/samples, and the first leaf below the flag leaf of each plant was investigated.\n(§6) The grading standard of crop disease was as follows:\n(§7) Grade 0: no leaf-spot area;\n(§8) Grade 1: the ratio of leaf-spot area to leaf area is less than 5%;\n(§9) Grade 3: the ratio of leaf-spot area to leaf area is between 6-25%;\n(§10) Grade 5: the ratio of leaf-spot area to leaf area is between 26-50%;\n(§11) Grade 7: the ratio of leaf-spot area to leaf area is between 51-75%;\n(§12) Grade 9: the ratio of leaf-spot area to leaf area is between 76-100%;\n(§13) According to the relevant content of the “Guidelines for the field efficacy trials of pesticides of the People's Republic of China (PRC)”, the disease index was calculated according to the grading standard, and the control effect in a unit of % was calculated based on the disease index, and the test data of significance analysis was performed by using DPS evaluation system (DMRT)."}, "[4]": {"test_system": "soybean rust", "assay": "Field trial, soybean rust", "type": "in vivo, Phakopsora pacchyrhizi Sydow", "details": "sprayed 2 times", "protocol": "III. The Soybean Rust Test Method:\nas §4\nTest crops: soybean (cultivars: Glycine max(L) Merr)\nas §5\nThe arrangement of the test plot was random block permutation; the area of the test plot: 25 m^2; repeat times: 3 times; spray time and frequency: 2 times on Aug. 11, 2018 and Aug. 21, 2018 respectively. Spray dosage: each treatment was repeated 3 times, the total water consumption was 8 L. No other pesticide was applied during the test. […] 15-20 days after the second spray treatment, the control effect was investigated.\nThe incidence of disease spots in each plot was investigated by diagonal selecting 5 samples/plot and 20 plants/samples, 10 leaves/plant was surveyed.\nas §6, §7, §8, §9, §10, §11, §12, §13"}, "[5]": {"test_system": "corn rust (Puccinia sorghi)", "assay": "Greenhouse pot test, corn rust", "type": "in vivo", "details": "Puccinia sorghi, 168 h, read-out: Control effect (%) Corn rust", "protocol": "as §2\nCorn rust: two-three leaf stage potted corn seedling with uniform growth was selected and made foliar spray treatment with 5% EC, the blank control sprayed with clean water was additionally arranged, three replicates were carried out. After 24 h, the leaves of the host plants were inoculated with sporangial suspensions of the fungi corn rust (Puccinia sorghi), the plants were stored in humidity chamber (temperature: lighting 25° C., dark 20° C., relative humidity 95-100%) and then transferred to greenhouse (25±1° C.) 24 h after infection. After 7 days, the screening results were investigated according to the disease incidence condition of blank control.\nas §3, §1"}}}
{"compound": "Cn1cc(C(=O)Nc2ccccc2Oc2ccc(C(F)(F)F)cc2C(F)(F)F)c(C(F)F)n1", "note": "[Compound 1]", "values": [{"measurement": "Control effect (%) Rice sheath blight", "setting": "[1]; 0.625 mg/L", "result": 75, "unit": "%"}, {"measurement": "Control effect (%) Rice sheath blight", "setting": "[1]; 1 mg/L", "result": 80, "unit": "%"}, {"measurement": "Control effect (%) Rice sheath blight", "setting": "[1]; 1.5625 mg/L", "result": 85, "unit": "%"}, {"measurement": "Control effect (%) Rice sheath blight", "setting": "[1]; 2.5 mg/L", "result": 90, "unit": "%"}, {"measurement": "Control effect (%) Rice sheath blight", "setting": "[1]; 3.1250 mg/L", "result": 100, "unit": "%"}, {"measurement": "Control effect (%) Rice sheath blight", "setting": "[1]; 10 mg/L", "result": 100, "unit": "%"}, {"measurement": "pest or weed control at 1 µg/mL", "setting": "[2]; 1 mg/L", "result": 90, "unit": "%"}, {"measurement": "pest or weed control at 1.5625 µg/mL", "setting": "[2]; 1.5625 mg/L", "result": 95, "unit": "%"}, {"measurement": "pest or weed control at 2.5 µg/mL", "setting": "[2]; 2.5 mg/L", "result": 98, "unit": "%"}, {"measurement": "pest or weed control at 3.125 µg/mL", "setting": "[2]; 3.1250 mg/L", "result": 100, "unit": "%"}, {"measurement": "pest or weed control at 6.25 µg/mL", "setting": "[2]; 6.25 mg/L", "result": 100, "unit": "%"}, {"measurement": "pest or weed control at 10 µg/mL", "setting": "[2]; 10 mg/L", "result": 100, "unit": "%"}, {"measurement": "pest or weed control at 25 µg/mL", "setting": "[2]; 25 mg/L", "result": 100, "unit": "%"}, {"measurement": "pest or weed control at 100 µg/mL", "setting": "[2]; 100 mg/L", "result": 100, "unit": "%"}, {"measurement": "Control effect (%) Wheat powdery mildew", "setting": "[3]; 100 mg/L", "result": 98, "unit": "%"}, {"measurement": "Control effect (%) Wheat powdery mildew", "setting": "[3]; 200 mg/L", "result": 100, "unit": "%"}, {"measurement": "Control effect (%)", "setting": "[4]; dosage 50 mg/L", "result": 92.67, "unit": "%"}, {"measurement": "Control effect (%)", "setting": "[4]; dosage 75 mg/L", "result": 94.56, "unit": "%"}, {"measurement": "Control effect (%)", "setting": "[4]; dosage 100 mg/L", "result": 97.69, "unit": "%"}, {"measurement": "pest or weed control at 1.5625 µg/mL", "setting": "[5]; 1.5625 mg/L", "result": 100, "unit": "%"}, {"measurement": "pest or weed control at 2.5 µg/mL", "setting": "[5]; 2.5 mg/L", "result": 100, "unit": "%"}, {"measurement": "pest or weed control at 3.125 µg/mL", "setting": "[5]; 3.1250 mg/L", "result": 100, "unit": "%"}, {"measurement": "pest or weed control at 6.25 µg/mL", "setting": "[5]; 6.25 mg/L", "result": 100, "unit": "%"}, {"measurement": "pest or weed control at 10 µg/mL", "setting": "[5]; 10 mg/L", "result": 100, "unit": "%"}, {"measurement": "pest or weed control at 25 µg/mL", "setting": "[5]; 25 mg/L", "result": 100, "unit": "%"}, {"measurement": "pest or weed control at 100 µg/mL", "setting": "[5]; 100 mg/L", "result": 100, "unit": "%"}]}
